Assay results taken from patent US11773062B2, “Deuterated compounds” (priority 2021, dated 2023).

Experiments:
[1] = in vivo; cited from earlier work
[2] = Human liver mitochondrial fraction intrinsic clearance of SPL026 with/without MAO-A and MAO-B inhibitors; format: in vitro ADME
Description: (§1) Human Liver Mitochondrial (HLMt) fractions contain high quantities of MAO enzymes and therefore, provide a useful tool to measure the clearance of MAO substrates.

[3] = Human liver mitochondrial fraction intrinsic clearance of SPL026, SPL028i, SPL028iii, SPL028viii; format: in vitro ADME; details: 0.5 mg/mL human liver mitochondrial fraction (Table 10)
Description: as §1

CYP1A2 = target: T1, CYP1A2 (Homo sapiens, UniProt P05177); test: in vitro
T1 sequence (P05177 1-516): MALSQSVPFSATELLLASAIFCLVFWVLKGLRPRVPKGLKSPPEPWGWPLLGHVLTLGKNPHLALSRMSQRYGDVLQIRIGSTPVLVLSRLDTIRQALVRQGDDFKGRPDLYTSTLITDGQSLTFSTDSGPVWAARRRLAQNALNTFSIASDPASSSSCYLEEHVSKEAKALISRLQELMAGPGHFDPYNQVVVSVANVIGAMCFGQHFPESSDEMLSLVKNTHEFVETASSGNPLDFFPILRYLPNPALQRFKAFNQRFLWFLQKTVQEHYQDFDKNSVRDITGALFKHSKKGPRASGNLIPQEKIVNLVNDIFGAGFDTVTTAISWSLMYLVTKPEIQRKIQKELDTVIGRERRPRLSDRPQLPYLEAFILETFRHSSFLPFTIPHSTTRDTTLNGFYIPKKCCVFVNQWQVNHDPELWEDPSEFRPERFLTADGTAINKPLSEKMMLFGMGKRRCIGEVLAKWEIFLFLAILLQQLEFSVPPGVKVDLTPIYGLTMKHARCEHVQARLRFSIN
Experimental: (§2) Samples were taken at predetermined time points.
(§3) Samples were then centrifuged at −4° C.
(§4) Positive control markers are as specified in Table 11.

CYP2B6 = target: T2, CYP2B6 (Homo sapiens, UniProt P20813); test: in vitro
T2 sequence (P20813 1-491): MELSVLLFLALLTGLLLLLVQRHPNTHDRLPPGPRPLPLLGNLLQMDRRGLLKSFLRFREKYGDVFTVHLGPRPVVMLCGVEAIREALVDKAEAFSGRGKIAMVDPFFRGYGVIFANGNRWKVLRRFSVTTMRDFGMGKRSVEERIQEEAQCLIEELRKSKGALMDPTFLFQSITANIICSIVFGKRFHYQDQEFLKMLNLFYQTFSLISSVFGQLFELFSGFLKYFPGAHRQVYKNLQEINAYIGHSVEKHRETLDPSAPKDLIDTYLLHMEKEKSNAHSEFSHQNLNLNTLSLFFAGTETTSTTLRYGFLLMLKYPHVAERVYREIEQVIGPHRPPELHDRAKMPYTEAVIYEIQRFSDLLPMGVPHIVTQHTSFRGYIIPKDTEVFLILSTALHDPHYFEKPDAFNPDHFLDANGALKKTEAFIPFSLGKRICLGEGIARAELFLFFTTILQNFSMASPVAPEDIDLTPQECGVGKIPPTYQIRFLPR
Experimental: as §2, §3, §4

CYP2C8 = target: T3, CYP2C8 (Homo sapiens, UniProt P10632); test: in vitro
T3 sequence (P10632 1-490): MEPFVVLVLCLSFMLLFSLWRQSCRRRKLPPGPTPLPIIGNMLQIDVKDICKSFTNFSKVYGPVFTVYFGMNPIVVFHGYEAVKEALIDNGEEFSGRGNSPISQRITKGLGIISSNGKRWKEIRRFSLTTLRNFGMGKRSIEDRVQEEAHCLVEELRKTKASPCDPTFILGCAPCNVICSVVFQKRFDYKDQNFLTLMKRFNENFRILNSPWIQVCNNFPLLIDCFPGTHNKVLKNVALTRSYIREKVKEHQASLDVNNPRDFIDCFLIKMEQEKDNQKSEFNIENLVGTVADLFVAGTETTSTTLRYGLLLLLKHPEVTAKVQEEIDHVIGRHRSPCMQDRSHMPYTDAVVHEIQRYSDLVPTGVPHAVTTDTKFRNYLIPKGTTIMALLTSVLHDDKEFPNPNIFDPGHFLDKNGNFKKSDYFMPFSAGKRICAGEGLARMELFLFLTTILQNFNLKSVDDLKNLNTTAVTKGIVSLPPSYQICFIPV
Experimental: as §2, §3, §4

CYP3A5 = CYP3A5 (Homo sapiens, UniProt P20815); test: in vitro
Chain of CYP3A5 (P20815 whole entry): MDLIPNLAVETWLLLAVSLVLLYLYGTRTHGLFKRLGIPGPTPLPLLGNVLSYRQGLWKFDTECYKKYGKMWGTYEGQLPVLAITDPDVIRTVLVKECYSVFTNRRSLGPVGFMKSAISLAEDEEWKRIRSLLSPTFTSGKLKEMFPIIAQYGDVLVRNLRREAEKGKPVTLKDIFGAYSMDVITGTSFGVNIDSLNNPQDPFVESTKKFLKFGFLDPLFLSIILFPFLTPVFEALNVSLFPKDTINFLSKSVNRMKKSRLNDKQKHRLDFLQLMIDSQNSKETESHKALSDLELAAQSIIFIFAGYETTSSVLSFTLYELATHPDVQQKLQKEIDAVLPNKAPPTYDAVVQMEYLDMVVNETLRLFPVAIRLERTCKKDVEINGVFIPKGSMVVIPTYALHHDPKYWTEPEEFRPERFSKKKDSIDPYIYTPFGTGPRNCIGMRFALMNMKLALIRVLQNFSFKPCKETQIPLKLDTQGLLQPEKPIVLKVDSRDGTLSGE
Experimental: as §2, §3, §4

CYP2C19 = CYP2C19 (Homo sapiens, UniProt P33261); test: CYP phenotyping, CYP bactosomes
Chain of CYP2C19 (P33261 whole entry): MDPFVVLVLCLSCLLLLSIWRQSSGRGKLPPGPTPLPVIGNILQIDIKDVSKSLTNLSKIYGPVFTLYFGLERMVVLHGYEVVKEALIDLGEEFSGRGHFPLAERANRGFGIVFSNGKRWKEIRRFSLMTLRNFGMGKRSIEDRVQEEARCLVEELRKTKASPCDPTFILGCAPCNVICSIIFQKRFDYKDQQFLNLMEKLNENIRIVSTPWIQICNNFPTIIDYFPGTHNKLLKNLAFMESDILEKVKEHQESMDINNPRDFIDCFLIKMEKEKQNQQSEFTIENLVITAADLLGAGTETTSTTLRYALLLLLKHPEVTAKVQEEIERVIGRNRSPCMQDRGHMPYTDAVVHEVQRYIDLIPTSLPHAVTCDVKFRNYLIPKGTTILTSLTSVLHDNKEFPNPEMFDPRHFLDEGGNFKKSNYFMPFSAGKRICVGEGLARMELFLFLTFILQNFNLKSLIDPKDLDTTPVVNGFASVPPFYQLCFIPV
Experimental: as §2, §3, §4

CYP2C9 = CYP2C9 (Homo sapiens, UniProt P11712); test: CYP phenotyping, CYP bactosomes
Chain of CYP2C9 (P11712 whole entry): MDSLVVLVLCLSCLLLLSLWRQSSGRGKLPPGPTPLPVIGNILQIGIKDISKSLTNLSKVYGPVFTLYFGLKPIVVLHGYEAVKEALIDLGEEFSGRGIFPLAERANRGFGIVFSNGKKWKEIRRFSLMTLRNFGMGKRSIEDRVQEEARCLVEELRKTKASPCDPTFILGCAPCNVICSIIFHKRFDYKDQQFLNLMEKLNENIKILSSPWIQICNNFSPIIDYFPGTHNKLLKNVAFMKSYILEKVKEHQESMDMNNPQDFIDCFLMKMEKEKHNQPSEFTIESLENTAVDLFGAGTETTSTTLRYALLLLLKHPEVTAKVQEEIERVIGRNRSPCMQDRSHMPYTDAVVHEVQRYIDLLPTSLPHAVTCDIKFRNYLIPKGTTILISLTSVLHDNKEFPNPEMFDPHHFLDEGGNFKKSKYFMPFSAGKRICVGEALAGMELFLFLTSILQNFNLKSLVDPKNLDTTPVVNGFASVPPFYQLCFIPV
Experimental: as §2, §3, §4

CYP3A4 = CYP3A4 (Homo sapiens, UniProt P08684); test: CYP phenotyping, CYP bactosomes
Chain of CYP3A4 (P08684 whole entry): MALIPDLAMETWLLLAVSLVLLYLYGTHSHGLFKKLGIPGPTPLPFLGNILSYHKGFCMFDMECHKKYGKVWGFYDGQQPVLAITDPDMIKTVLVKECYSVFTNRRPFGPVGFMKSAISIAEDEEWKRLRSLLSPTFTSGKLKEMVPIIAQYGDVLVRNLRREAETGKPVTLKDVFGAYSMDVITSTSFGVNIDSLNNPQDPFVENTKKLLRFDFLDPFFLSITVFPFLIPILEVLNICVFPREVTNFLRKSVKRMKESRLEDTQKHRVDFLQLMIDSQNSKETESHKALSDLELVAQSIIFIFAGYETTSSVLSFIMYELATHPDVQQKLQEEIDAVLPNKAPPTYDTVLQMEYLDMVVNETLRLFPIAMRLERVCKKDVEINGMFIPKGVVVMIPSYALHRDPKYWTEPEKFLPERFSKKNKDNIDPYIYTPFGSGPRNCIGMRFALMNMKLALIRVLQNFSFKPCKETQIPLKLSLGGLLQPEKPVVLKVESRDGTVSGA
Experimental: as §2, §3, §4

CYP2D6 [4] = target: T4, CYP2D6 (Homo sapiens, UniProt P10635)
T4 sequence (P10635 whole entry): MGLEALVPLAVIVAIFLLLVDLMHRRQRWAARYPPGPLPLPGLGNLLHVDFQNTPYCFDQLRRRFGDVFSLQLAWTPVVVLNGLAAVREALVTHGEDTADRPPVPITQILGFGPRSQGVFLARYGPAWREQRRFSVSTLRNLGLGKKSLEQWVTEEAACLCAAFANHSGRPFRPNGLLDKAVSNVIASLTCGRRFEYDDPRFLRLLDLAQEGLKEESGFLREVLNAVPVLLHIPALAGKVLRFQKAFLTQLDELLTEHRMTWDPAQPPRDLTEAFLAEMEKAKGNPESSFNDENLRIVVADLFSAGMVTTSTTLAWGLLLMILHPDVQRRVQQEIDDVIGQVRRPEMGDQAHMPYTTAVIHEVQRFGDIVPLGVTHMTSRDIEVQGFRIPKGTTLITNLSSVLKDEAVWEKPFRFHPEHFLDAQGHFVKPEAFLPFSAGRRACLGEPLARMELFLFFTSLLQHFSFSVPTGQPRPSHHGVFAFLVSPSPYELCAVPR
Experimental: (§5) The CYPs used in this study are heterologously expressed in E. coli and purchased as individualised forms (CYP bactosomes) from CYPEX. Bactosomes contain recombinant CYP isoenzymes combined with CYP reductase leading to a higher specific activity than liver microsomes.
(§6) Phosphate buffer is prepared at 0.1 M, pH 7.4 by combining 0.1 M Na2HPO4 and 0.1 M KH2PO4 solutions.
(§7) Nicotinamide adenine dinucleotide 2′-phosphate reduced tetrasodium salt hydrate (NADPH) is prepared at 10 m<in 0.1 M phosphate buffer (pH 7.4).
(§8) The individual CYP bactosomes are thawed at room temperature undiluted to 200 pmol/mL and 0.1 M phosphate buffer.
(§9) Standard final incubation conditions are 1-3 μM compound in a buffer containing 100 pmol/mL CYP bactosome, 1% (v/v) DMSO.
(§10) The elimination rate constant (k) is calculated using the slope of a ln (MS peak area or response—if internal standard is used) vs. time plot of the test compounds and markers.
(§11) Intrinsic clearance in μL/min/nmol CYP is calculated using the following equation: Clint=−1000 k/CYP concentration
(§12) Projected CYP isoform intrinsic clearance accounting for estimated CYP abundance in human liver microsomes (μL/min/mg microsomal protein)* is calculated using the following equation: Projected set isoform intrinsic clearance=Estimated CYP abundance*Clint * Estimated CYP abundance is taken as an average from three literature references 1, 2 3 and the abundances used are as follows (nmol CYP/mg Human Liver Microsomal Protein):

CYP2D6 [5] = target: T4, CYP2D6; test: in vitro; details: recombinant enzyme, pH 7.4
Experimental: as §5, §6, §7, §8, §9, §10, §11, §12

CYP2D6 [6] = target: T4, CYP2D6; test: CYP phenotyping, CYP bactosomes
Experimental: as §5, §6, §7, §8, §9, §10, §11, §12

[7] = In vitro mouse hepatocytic intrinsic clearance; details: male, CD-1, mouse, hepatocytes
[8] = test system: human (mixed gender) hepatocytes; test: In vitro intrinsic clearance in human hepatocytes with and without MAO-A/B inhibitor combination (first experiment)
Experimental: Standard final incubation conditions are 1 μM compound in buffer containing nominally ˜0.5 million viable cells/mL, ˜0.9% (v/v) acetonitrile (MeCN) and ˜0.1% (v/v) DMSO (specific assay concentrations outlined above, section 2).
Samples are then centrifuged at 4° C.

[9] = human liver mitochondrial fraction, Deprenyl (MAO-B inhibitor) 100 nM
[10] = E. coli CYPEX membranes, 100 pmol/mL CYP
[11] = human, recombinant enzyme, pH 7.4
[12] = human hepatocytes, with MAO-A/B inhibitor combination (Table 5)
[13] = human hepatocytes, without MAO-A/B inhibitor combination (Table 5)

Compound: [2H]C([2H])(c1c[nH]c2ccccc12)C([2H])([2H])N(C)C [D4DMT, α,α,β,β-tetradeutero-N,N-dimethyltryptamine]
- behavioural effect compared to equal doses of DMT [1]: shorter time to onset and potentiation of behaviour disrupting effects

Compound: CN(C)CCc1c[nH]c2ccccc12 [SPL026, N,N-dimethyltryptamine, reference compound]
- half-life ([2]; 0.5 mg/mL human liver mitochondrial fraction, DMSO Vehicle (no inhibitor)): 33.7 min
- half-life ([2]; human liver mitochondrial fraction, Clorgyline (MAO-A inhibitor) 100 nM): >373.7 min
- Intrinsic Clearance [2, 9]: 42.7 μL/min/mg protein
- half-life [2, 9]: 32.5 min
- half-life [3]: 8.6 min
- intrinsic clearance, CYP isoform 1A2 (CYP1A2; [10]): <29 μL/min/nmol CYP
- half-life (CYP1A2; [11]): > 240 min
- intrinsic clearance, CYP isoform 2B6 (CYP2B6; [10]): <29 μL/min/nmol CYP
- half-life (CYP2B6; [11]): > 240 min
- intrinsic clearance, CYP isoform 2C8 (CYP2C8; [10]): <29 μL/min/nmol CYP
- half-life (CYP2C8; [11]): > 240 min
- intrinsic clearance, CYP isoform 3A5 (CYP3A5; [10]): <29 μL/min/nmol CYP
- half-life (CYP3A5; [11]): > 240 min
- substrate for CYP2C19 (CYP2C19; CYP phenotyping): substrates
- intrinsic clearance, CYP isoform 2C19 (CYP2C19; [10]): 37 μL/min/nmol CYP
- half-life (CYP2C19; [11]): 189 min
- projected scaled intrinsic clearance, CYP isoform 2C19 (CYP2C19; scaled by estimated CYP abundance in human liver microsomes (0.009 nmol CYP/mg)): 0.3 μl/min/mg microsomal protein
- intrinsic clearance, CYP isoform 2C9 (CYP2C9; [10]): <29 μL/min/nmol CYP
- half-life (CYP2C9; [11]): > 240 min
- intrinsic clearance, CYP isoform 3A4 (CYP3A4; [10]): <29 μL/min/nmol CYP
- half-life (CYP3A4; [11]): > 240 min
- projected scaled intrinsic clearance, CYP isoform 2D6 (CYP2D6 [4]): 9.5 μl/min/mg microsomal protein
- half-life (CYP2D6 [5]): 9 min
- substrate for CYP2D6 (CYP2D6 [6]; CYP phenotyping): substrates
- intrinsic clearance, CYP isoform 2D6 (CYP2D6 [6]; [10]): 801 μL/min/nmol CYP
- half-life at 5 μM [7]: 15.3 min
- hepatocyte CLint at 5 μM [7]: 124 µL/min/1e6 cells
- % change in half-life, MAO inhibitors vs no inhibitors ([8]; human hepatocytes (Table 5)): 3.82%
- % change in intrinsic clearance, MAO inhibitors vs no inhibitors ([8]; human hepatocytes (Table 5)): −4.00%
- Intrinsic clearance, with inhibitors ([8]; human hepatocytes, with 100 nM clorgyline + 100 nM deprenyl/selegiline (Table 3)): 13.24 μL/min/million cells
- Half-life, with inhibitors [8, 12]: 96.06 min
- Intrinsic clearance, with inhibitors [8, 12]: 13.24 μL/min/million cells
- Half-life, with inhibitors ([8]; human hepatocytes, with MAO-A/B inhibitors (Table 4; unit given only in Table 5)): 96.06 min
- slower intrinsic clearance with inclusion of MAO inhibitors ([8]; human hepatocytes, with vs without MAO inhibitors): ~4%
- Half-life, without inhibitors ([8]; human hepatocytes, without MAO inhibitors (Table 4; unit given only in Table 5)): 92.39 min
- Half-life, without inhibitors [8, 13]: 92.39 min
- Intrinsic clearance, without inhibitors [8, 13]: 13.77 μL/min/million cells
